This assay relates to superoxide dismutase (SOD). As to the kind of experiment: SOD activity of thymus tissue (Example 3). Format: in vivo, mouse. Particulars: 10 mg/kg orally once a day for 7 days. The protocol: Mice (35 to 45 weeks old, BALB/cAJc1) preliminary raised for 1 week were injected with 10 mg of ALA hydrochloride per 1 kg mouse body weight once a day for 7 days continuously. ALA hydrochloride was adjusted to a concentration of […] with distilled water and orally administered to the mice. After the test, each mouse was sacrificed and the thymus of mouse was collected to measure superoxide dismutase (SOD) activity of its tissue. To the collected thymus, 1.0 ml of 0.25 M sucrose solution was added, and the mixture homogenized and then centrifuged at 10,000 G for 10 minutes, and the resulting supernatant solution was used as the enzyme solution. The measurement was carried out using an emission reagent for antioxidant ability measurement, MPEC (2-methyl-6-p-methoxyphenylethynylimidazopyrazinone) (manufactured by Atto Corp.). That is, 250 μl of a reaction solution containing 125 μl of 0.1 M potassium phosphate buffer (pH 7.5), 10 μl of the enzyme liquid, 60 μl of 0.1 unit/ml xanthine oxidase, 45 μl of distilled water and 10 μl of 0.3 mM MPEC was dispensed into Luminescencer-PSN (manufactured by Atto Corp.), 50 μl of 0.72 mM hypoxanthine (pH 7.5) was added for emission. For the calculation of emission inhibition ratio, the buffer was used instead of the enzyme liquid. For the calculation, a calibration curve was prepared using standard SOD, and the concentration calculation was carried out using this.
The test was carried out using 5 male and 5 female mice, a total of 10 animals, for each plot, and the values were shown by average value. It was confirmed that the SOD activity or GPx activity is improved in both cases of male and female in the ALA-treated plot.

This note sets out measurements from patent publication US8790712B2, “Constitutional function-improving agents” (Cosmo Oil Co., Ltd., priority 2004, dated 2014).

Take `NCC(=O)CCC(=O)O` [ALA, 5-aminolevulinic acid]: where the note is “female mice”, the SOD activity came out at 30.7 U/ml and the “Total SOD activity” value stood at 31.84 U/organ. For the same molecule, for the setting “male mice”, the SOD activity stood at 20.2 U/ml and the “Total SOD activity” value was found to be 20.95 U/organ.
